The record followed here is ChEMBL document CHEMBL1157089, “Antitrypanosomal cyclic polyketide peroxides from the Australian marine sponge Plakortis sp” (J Nat Prod, 2010).

Data set [1] relates to Trypanosoma brucei brucei. Description: Antitrypanosomal activity against Trypanosoma brucei brucei BS427 after 48 hrs by alamar blue assay. As to conditions: BS427, 48 h. The format is functional, organism-based. For orientation: Resazurin is reduced to fluorescent resorufin, in cell work by metabolically active cells.
For data set [2], the system named is HEK293. Put plainly: Cytotoxicity against HEK293 cells after 48 hrs by alamar blue assay. The class given is cell-based. As to conditions: Homo sapiens, HEK293, 48 h.
Data set [3] in a line: Selectivity ratio of IC50 for HEK293 cells to IC50 for Trypanosoma brucei brucei BS427. The format is ADME, cell-based. As to conditions: human, read-out: Ratio IC50.
For data set [4], the system named is HEK293. Put plainly: Cytotoxicity against HEK293 cells after at 83 uM 48 hrs by alamar blue assay. The format is cell-based. As to conditions: human, hek293, 48 h.

One may read the IC50 as the concentration that gives 50% inhibition. Higher therefore signals weaker potency in that assay.

On to `CC[C@@H](/C=C/C(C)=O)C[C@H](C)C[C@@]1(CC)C[C@@H](CC)[C@@H](CC(=O)O)OO1`, for which the IC50 in data set [1] is 0.049 µM; in the data set on HEK293 [2], 0.0051 µM. For the same compound, in data set [3], the selectivity ratio is 105.
In data set [1], `CC[C@H](C[C@H](C)C[C@@]1(CC)C[C@@H](CC)[C@@H](CC(=O)O)OO1)C(=O)O` returned an IC50 of 0.94 µM. In addition, the Activity in the data set with HEK293 [4] is 100%.
For the compound `C=C1CCC[C@@H]2[C@@H](CC[C@@]3(C)CC[C@H]([C@H](C)C(=O)O)OO3)[C@H](C)CC[C@@]12C` [SIGMOSCEPTRELLIN B], the IC50 in data set [1] was 0.51 µM.
